# According to patent US20090099094A1, “Use of Somatostatin Agonists to Treat Medullary Thyroid Carcinoma” (priority 2007, published 2009):
# Square brackets hold non-standard residues; d marks the D form. Peptide text beside a SMILES is read from it. Tic = O=C(O)[C@@H]1Cc2ccccc2CN1; Abu = CC[C@H](N)C(=O)O
# Experiments:
# SSTR3 = SSTR3 (Homo sapiens, UniProt P32745); test: SSTR receptor binding affinity (Ki), SSTR3; conditions: read-out: SSTR Specificity Ki SSTR3
# [1] = system: medullary thyroid carcinoma primary cultures; test: Calcitonin secretion by MTC primary cultures (IRMA); type: cell-based, human; conditions: 10^−8 M, six hours
# Method: Primary cultured cells from 18 selected MTC samples were incubated in ninety six well plates for six hours with each SSTR agonist at 10^−8 M. Control cells were treated with vehicle solution. Calcitonin levels in the conditioned medium were measured by immunoradiometric assay (IRMA) among eight replicates in the conditioned medium from treated and untreated (control) primary cultured cells. […] Data are expressed as the mean±SE percent hormone secretion inhibition vs. untreated control cells. *P<0.05 and **P<0.01 vs. control.
# (§1) Tissue samples were surgically removed in accordance with the guidelines of the local comnmittees on human research. Thyroid tissue samples were obtained under sterile conditions and immediately minced in RPMI 1640 tissue culture medium. Tissues were incubated with 0.25% trypsin overnight at 4° C. and then dissociated using 0.35% collagenase (Sigma, Milano, ITALY) and 1% trypsin at 37° C. for sixty minutes. Cell suspensions were filtered through double layers of gaus(e and washed twice with serum-free F-12 Ham's Nutrient Modified Medium (F-12; Euroclone Ltd, Wetherby, UNITED KINGDOM). Tumor cells were re-suspended in F-12 with 10% fetal bovine serum and antibiotics, seeded in ninety-six well culture plates (˜2×10^4 cells/well) and incubated at 37° C. in a humidified atmosphere of 5% CO2 and 95% air according to known procedures (Zatelli, M. C. et al., Endocrinology, 2005, 146:2692-8). Approximately twenty-four hours later, the prepared cells were treated with the selected somatostatin agonist and were monitored for hormone secretion and overall viability. Informed consent of the patients was obtained for disclosing clinical investigation and performing the in vitro study.
# Calcitonin levels were measured in a conditioned medium from treated and untreated primary cultured cells with the calcitonin-U.S.-IRMA® kit (Biosource Europe, Nivelles, BELGIUM) after a six hour treatment with […] of the selected somatostatin analogs. The intra- and inter-assay variation coefficients were 1.9-2.7% and 1.9-3.3%, respectively. The detection limit was 0.8 pg/ml. Hormone assays were performed in duplicate of conditioned medium from treated cells. Results were obtained by determining the mean value among eight replicates.
# In order to investigate the effects of somatostatin analogs on hormone secretion, calcitonin and CgA levels were measured in conditioned media collected from primary cultures derived from the selected eighteen medullary thyroid carcinoma treated with or without each somatostatin analog at 10^−8M for six hours.
# According to this criterion, […] as “responders” (group A: primary cultures #3, #5, #6, #7, #11, #12, #13, #14, #15, #16) and nine as “non responders” (group B: primary cultures #1, #2, #4, #8, #9, #10, #17, #18).
# SSTR5 = SSTR5 (Homo sapiens, UniProt P35346); test: SSTR receptor binding affinity (Ki), SSTR5; conditions: read-out: SSTR Specificity Ki SSTR5
# SSTR1 = SSTR1 (Homo sapiens, UniProt P30872); test: SSTR receptor binding affinity (Ki), SSTR1; conditions: read-out: SSTR Specificity Ki SSTR1
# SSTR2 = SSTR2 (Homo sapiens, UniProt P30874); test: SSTR receptor binding affinity (Ki), SSTR2; conditions: read-out: SSTR Specificity Ki SSTR2
# SSTR4 = SSTR4 (Homo sapiens, UniProt P31391); test: SSTR receptor binding affinity (Ki), SSTR4; conditions: read-out: SSTR Specificity Ki SSTR4
# [2] = system: medullary thyroid carcinoma primary cultures; test: Cell viability of MTC primary cultures (MTT); type: cell-based, human; conditions: 10^−8 M, forty-eight hours; for cell viability, change vs. control (signed, negative = reduced): group B (lanreotide non-responsive) mean
# Method: Primary cultured cells from 18 selected MTC samples were incubated in ninety six well plates for forty eight hours with each SSTR agonist at 10^−8 M. Control cells were treated with vehicle solution. Cell viability was measured by a colorimetric method among eight replicates from treated and untreated (control) primary cultured cells. […] Data are expressed as the mean±SE percent cell viability reduction vs. untreated control cells. *P<0.05, and **P<0.01 vs. control.
# as §1
# The effects of the tested somatostatin analogs on medullary thyroid carcinoma primary culture cell viability were assessed with a Cell Proliferation Kit I MTT® (Roche Diagnostics GmbH, Mannheim, GERMANY) which employs a colorimetric method for determining the number of viable cells in proliferation assays. Primary cultured cells were plated in ninety-six multiwell plates (2×10^4 cells/well) and incubated for forty-eight hours in a medium supplemented with 10% fetal bovine serum in the presence or absence of each somatostatin analog at 10^−8M. Treatments were renewed after the first twenty-four hours of incubation.
# In order to investigate the effects of somatostatin analogs on medullary thyroid carcinoma cell viability, an MTT assay was performed in primary cultures derived from the eighteen selected medullary thyroid carcinoma samples, treated with or without each somatostatin analog at […] for forty-eight hours. Percent cell viability reduction compared to a control in each primary culture under treatment with each somatostatin analog is reported in Table 6.
# [3] = MTC primary culture #1 (non responder)
# [4] = MTC primary culture #2 (non responder)
# [5] = MTC primary culture #3 (responder)
# [6] = MTC primary culture #4 (non responder)
# [7] = MTC primary culture #5 (responder)
# [8] = MTC primary culture #6 (responder)
# [9] = MTC primary culture #7 (responder)
# [10] = MTC primary culture #8 (non responder)
# [11] = MTC primary culture #9 (non responder)
# [12] = MTC primary culture #10 (non responder)
# [13] = MTC primary culture #11 (responder)
# [14] = MTC primary culture #12 (responder)
# [15] = MTC primary culture #13 (responder)
# [16] = MTC primary culture #14 (responder)
# [17] = MTC primary culture #15 (responder)
# [18] = MTC primary culture #16 (responder)
# [19] = MTC primary culture #17 (non responder)
# [20] = MTC primary culture #18 (non responder)
# [21] = group A (lanreotide responsive) mean
# [22] = group B (lanreotide non-responsive) mean
# SSTR5, sequence (P35346 whole entry): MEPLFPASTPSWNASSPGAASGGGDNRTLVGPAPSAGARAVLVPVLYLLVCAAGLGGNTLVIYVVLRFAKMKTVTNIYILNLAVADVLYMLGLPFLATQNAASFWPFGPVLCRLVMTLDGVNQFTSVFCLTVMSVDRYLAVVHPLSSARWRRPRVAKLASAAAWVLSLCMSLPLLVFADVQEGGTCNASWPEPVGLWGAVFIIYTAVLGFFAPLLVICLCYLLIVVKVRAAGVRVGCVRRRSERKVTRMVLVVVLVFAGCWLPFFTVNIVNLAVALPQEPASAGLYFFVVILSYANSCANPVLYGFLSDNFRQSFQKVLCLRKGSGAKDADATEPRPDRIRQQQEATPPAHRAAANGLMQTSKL
# SSTR3, sequence (P32745 whole entry): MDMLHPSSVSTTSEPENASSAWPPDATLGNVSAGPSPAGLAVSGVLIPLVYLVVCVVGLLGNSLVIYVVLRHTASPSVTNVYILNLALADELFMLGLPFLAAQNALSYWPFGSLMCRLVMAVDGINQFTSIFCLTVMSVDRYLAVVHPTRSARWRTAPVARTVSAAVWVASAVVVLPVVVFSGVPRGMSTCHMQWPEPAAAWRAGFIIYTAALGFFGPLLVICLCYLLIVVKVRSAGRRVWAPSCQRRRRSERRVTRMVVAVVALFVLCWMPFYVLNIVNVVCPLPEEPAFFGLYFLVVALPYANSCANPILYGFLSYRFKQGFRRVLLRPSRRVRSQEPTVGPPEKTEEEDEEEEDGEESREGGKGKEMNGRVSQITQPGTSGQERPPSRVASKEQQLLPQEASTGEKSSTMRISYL
# SSTR1, sequence (P30872 whole entry): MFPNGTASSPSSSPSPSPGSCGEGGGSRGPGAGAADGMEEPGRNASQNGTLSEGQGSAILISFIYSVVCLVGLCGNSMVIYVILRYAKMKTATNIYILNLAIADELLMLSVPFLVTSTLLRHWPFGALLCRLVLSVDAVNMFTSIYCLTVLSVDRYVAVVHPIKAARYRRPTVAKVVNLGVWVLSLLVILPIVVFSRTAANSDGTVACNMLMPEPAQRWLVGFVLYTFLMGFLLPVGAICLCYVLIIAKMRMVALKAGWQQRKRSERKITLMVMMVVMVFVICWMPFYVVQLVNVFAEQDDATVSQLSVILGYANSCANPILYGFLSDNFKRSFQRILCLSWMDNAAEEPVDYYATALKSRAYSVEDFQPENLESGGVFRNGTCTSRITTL
# SSTR2, sequence (P30874 whole entry): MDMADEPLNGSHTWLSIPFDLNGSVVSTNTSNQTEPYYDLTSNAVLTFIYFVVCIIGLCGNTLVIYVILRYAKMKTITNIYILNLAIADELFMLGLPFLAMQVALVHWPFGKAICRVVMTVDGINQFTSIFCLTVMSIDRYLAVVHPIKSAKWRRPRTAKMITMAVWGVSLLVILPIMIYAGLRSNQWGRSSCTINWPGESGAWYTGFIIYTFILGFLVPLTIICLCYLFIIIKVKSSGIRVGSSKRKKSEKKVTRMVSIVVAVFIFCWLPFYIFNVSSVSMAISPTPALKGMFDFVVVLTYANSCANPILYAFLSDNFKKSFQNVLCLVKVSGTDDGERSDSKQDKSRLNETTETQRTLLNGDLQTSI
# SSTR4, sequence (P31391 whole entry): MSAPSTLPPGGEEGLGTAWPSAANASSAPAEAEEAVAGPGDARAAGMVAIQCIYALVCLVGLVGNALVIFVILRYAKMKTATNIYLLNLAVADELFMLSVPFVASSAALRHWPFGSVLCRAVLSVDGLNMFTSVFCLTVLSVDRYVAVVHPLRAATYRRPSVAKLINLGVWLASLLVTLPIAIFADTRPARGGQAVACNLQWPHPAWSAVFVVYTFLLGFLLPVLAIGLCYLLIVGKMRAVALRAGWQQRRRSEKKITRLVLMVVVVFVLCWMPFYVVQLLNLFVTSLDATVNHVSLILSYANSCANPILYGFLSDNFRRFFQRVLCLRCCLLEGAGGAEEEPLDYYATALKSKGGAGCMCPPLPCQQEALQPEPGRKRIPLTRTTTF
compound,measurement,setting,value
"CC[C@@H]1NC(=O)[C@H](CCCCN)NC(=O)[C@@H](Cc2c[nH]c3ccccc23)NC(=O)[C@H](Cc2ccc(O)cc2)NC(=O)[C@@H]2Cc3ccccc3CN2C(=O)[C@H](Cc2ccccc2)NC1=O [Cmpd #2, c[Tic-Tyr-D-Trp-Lys-Abu-Phe]] (cyclo([Tic]Y[dW]K[Abu]F))",Ki,SSTR3,412 nM
same,% CT secretion inhibition vs. control,[1]; [3],−6.1%
same,% CT secretion inhibition vs. control,[1]; [4],−4.3%
same,% CT secretion inhibition vs. control,[1]; [5],−36.0%
same,% CT secretion inhibition vs. control,[1]; [6],8.9%
same,% CT secretion inhibition vs. control,[1]; [7],−8.6%
same,% CT secretion inhibition vs. control,[1]; [8],−5.7%
same,% CT secretion inhibition vs. control,[1]; [9],−51.3%
same,% CT secretion inhibition vs. control,[1]; [10],−2.6%
same,% CT secretion inhibition vs. control,[1]; [11],6.7%
same,% CT secretion inhibition vs. control,[1]; [12],11.6%
same,% CT secretion inhibition vs. control,[1]; [13],10.3%
same,% CT secretion inhibition vs. control,[1]; [14],−12.4%
same,% CT secretion inhibition vs. control,[1]; [15],−48.6%
same,% CT secretion inhibition vs. control,[1]; [16],1.6%
same,% CT secretion inhibition vs. control,[1]; [17],−22.9%
same,% CT secretion inhibition vs. control,[1]; [18],−31.7%
same,% CT secretion inhibition vs. control,[1]; [19],−2.6%
same,% CT secretion inhibition vs. control,[1]; [20],−1.5%
same,"calcitonin secretion, change vs. control (signed, negative = reduced)",[1]; [21],−23%
same,"calcitonin secretion, change vs. control (signed, negative = reduced)",[1]; [22],not reduced
same,Ki,SSTR5,214 nM
same,Ki,SSTR1,1000 nM
same,Ki,SSTR2,0.34 nM
same,Ki,SSTR4,1000 nM
same,% cell viability reduction vs. control,[2]; [3],−5.0%
same,% cell viability reduction vs. control,[2]; [4],−56.4%
same,% cell viability reduction vs. control,[2]; [5],−3.2%
same,% cell viability reduction vs. control,[2]; [6],−17.9%
same,% cell viability reduction vs. control,[2]; [7],−8.6%
same,% cell viability reduction vs. control,[2]; [8],3.2%
same,% cell viability reduction vs. control,[2]; [9],54.4%
same,% cell viability reduction vs. control,[2]; [10],−15.3%
same,% cell viability reduction vs. control,[2]; [11],−8.8%
same,% cell viability reduction vs. control,[2]; [12],12.1%
same,% cell viability reduction vs. control,[2]; [13],−0.4%
same,% cell viability reduction vs. control,[2]; [14],15.8%
same,% cell viability reduction vs. control,[2]; [15],−5.3%
same,% cell viability reduction vs. control,[2]; [16],8.2%
same,% cell viability reduction vs. control,[2]; [17],5.6%
same,% cell viability reduction vs. control,[2]; [18],−3.0%
same,% cell viability reduction vs. control,[2]; [19],−10.3%
same,% cell viability reduction vs. control,[2]; [20],−20.6%
same,"cell viability, change vs. control (signed, negative = reduced)",[2],−13%
"C[C@@H](O)[C@H](NC(=O)[C@H](Cc1ccccc1)NC(=O)[C@@H](NC(=O)[C@H](CCCCN)NC(=O)[C@@H](Cc1c[nH]c2ccccc12)NC(=O)[C@H](Cc1c[nH]c2ccccc12)NC(=O)[C@H](Cc1ccccc1)NC(=O)[C@H](N)Cc1ccccc1)[C@@H](C)O)C(N)=O [Cmpd #3, D-Phe-Phe-Trp-D-Trp-Lys-Thr-Phe-Thr-NH2]",Ki,SSTR3,1000 nM
same,% CT secretion inhibition vs. control,[1]; [3],−16.6%
same,% CT secretion inhibition vs. control,[1]; [4],18.2%
same,% CT secretion inhibition vs. control,[1]; [5],−36.5%
same,% CT secretion inhibition vs. control,[1]; [6],5.3%
same,% CT secretion inhibition vs. control,[1]; [7],−17.5%
same,% CT secretion inhibition vs. control,[1]; [8],−25.8%
same,% CT secretion inhibition vs. control,[1]; [9],−34.6%
same,% CT secretion inhibition vs. control,[1]; [10],−7.5%
same,% CT secretion inhibition vs. control,[1]; [11],−1.6%
same,% CT secretion inhibition vs. control,[1]; [12],15.6%
same,% CT secretion inhibition vs. control,[1]; [13],−76.2%
same,% CT secretion inhibition vs. control,[1]; [14],−9.3%
same,% CT secretion inhibition vs. control,[1]; [15],−43.2%
same,% CT secretion inhibition vs. control,[1]; [16],9.5%
same,% CT secretion inhibition vs. control,[1]; [17],7.8%
same,% CT secretion inhibition vs. control,[1]; [18],−17.4%
same,% CT secretion inhibition vs. control,[1]; [19],7.4%
same,% CT secretion inhibition vs. control,[1]; [20],13.6%
same,calcitonin secretion reduced / inhibited by,[1]; group A (lanreotide responders) mean,28%
same,"calcitonin secretion, change vs. control (signed, negative = reduced)",[1]; [21],−28%
same,"calcitonin secretion, change vs. control (signed, negative = reduced)",[1]; [22],not reduced
same,Ki,SSTR5,2.4 nM
same,Ki,SSTR1,1150 nM
same,Ki,SSTR2,166 nM
same,% cell viability reduction vs. control,[2]; [3],30.8%
same,% cell viability reduction vs. control,[2]; [4],−72.5%
same,% cell viability reduction vs. control,[2]; [5],0.4%
same,% cell viability reduction vs. control,[2]; [6],4.8%
same,% cell viability reduction vs. control,[2]; [7],−5.3%
same,% cell viability reduction vs. control,[2]; [8],2.4%
same,% cell viability reduction vs. control,[2]; [9],4.2%
same,% cell viability reduction vs. control,[2]; [10],−0.3%
same,% cell viability reduction vs. control,[2]; [11],3.6%
same,% cell viability reduction vs. control,[2]; [12],2.3%
same,% cell viability reduction vs. control,[2]; [13],−1.0%
same,% cell viability reduction vs. control,[2]; [14],−11.3%
same,% cell viability reduction vs. control,[2]; [15],7.2%
same,% cell viability reduction vs. control,[2]; [16],6.0%
same,% cell viability reduction vs. control,[2]; [17],5.2%
same,% cell viability reduction vs. control,[2]; [18],−5.8%
same,% cell viability reduction vs. control,[2]; [19],−8.7%
same,% cell viability reduction vs. control,[2]; [20],−3.8%
same,"cell viability, change vs. control (signed, negative = reduced)",[2],neither affected
CCCN1C[C@H](CSCC(=O)NCCCC[C@@H](NC(=O)CSC[C@@H]2C[C@@H]3c4cccc5[nH]cc(c45)C[C@H]3N(CCC)C2)C(=O)N[C@H]2CSSC[C@@H](C(=O)N[C@H](C(N)=O)[C@@H](C)O)NC(=O)[C@H](CC)NC(=O)[C@H](CCCCN)NC(=O)[C@@H](Cc3c[nH]c4ccccc34)NC(=O)[C@H](Cc3ccc(O)cc3)NC2=O)C[C@@H]2c3cccc4[nH]cc(c34)C[C@H]21 [Dop2-D-Lys(Dop2)-c[Cys-Tyr-D-Trp-Lys-Abu-Cys]-Thr-NH2],Ki,SSTR5,41.5 nM
